Results published in patent US5750496A, “Method of controlling cryptosporidium infectons using protease inhibitors” (priority 1996, dated 1998).
Starred links: 1 amine or outer side, 2 acyl side, 3 side chain; linkers in the order of their positions; H or OH if unused. Residues, ends and D or L forms follow the SMILES beside them. *: point of attachment. MeOSuc = COC(=O)CCC(=O)*; CO = O=C([*:1])[*:2]; CH2Cl = ClC*

B1: soybean trypsin inhibitor (protein, UniProt P01070 25-205, looked up)
Trypsin inhibitor A: DFVLDNEGNPLENGGTYYILSDITAFGGIRAAPTGNERCPLTVVQSRNELDKGIGTIISSPYRIRFIAEGHPLSLKFDSFAVIMLCVGIPTEWSVVEDLPEGPAVKIGENKDAMDGWFRLERVSDDEFNNYKLVFCPQQAEDDKCGDIGISIDHDDGTRRLVVSKNKPLVVQFQKLDKESL

Tests used:
C. parvum = experiment: Anticryptosporidial effect in BFTE cell culture inoculated with C. parvum oocysts, parasites enumerated 24 hours post-inoculation; format: cell-based, Cryptosporidium parvum (bovine isolate); conditions: for Control Percent Survival: 24 hours post-inoculation; for Lowest concentrations with significant reduction (P<0.001) in parasite numbers: concentrations as low as, P<0.001 vs infection control; for Intact (i.e. unexcysted) oocysts in treated BFTE cell monolayers during microscopic enumeration: predominantly associated with concentrations exceeding 100 μg/ml
Method: C. parvum (bovine isolate) oocysts used in this study were originally donated by the U.S. Department of Agriculture, Ames, Iowa. The oocysts were isolated from calf manure, preserved in 2.5% potassium dichromate, and used within 3 months of purification. Oocysts were decontaminated by suspension in 20% (vol/vol) 1.05% sodium hypochlorite on ice for 20 minutes. Oocysts were then washed three times in Hanks' balanced salt solution ("HIBSS") and once in RPMI 1640 (available from Sigma, St. Louis, Mo.). Release of sporozoites was achieved by incubating oocysts in an excystation solution consisting of 0.25% (wt/vol) trypsin (available from Sigma, St. Louis, Mo.) and 0.75% (wt/vol) taurodeoxycholic acid (available from Sigma) in HBSS. The resulting suspension was incubated at 37° C. for 45 minutes and microscopically observed to confirm sporozoite release. Sporozoites were completely separated from intact oocysts and oocyst walls by passage through sterile polycarbonate filters (3 micron pore size, available from Millipore Corp., Bedford, Mass.) twice prior to inoculation of bovine fallopian tube epithelial ("BFTE") cell monolayers.
Primary BFTE cell cultures were prepared from bovine fallopian tubes (FT). Fat was trimmed from the serosal surfaces, mucus was gently squeezed from the lumens, and FT were decontaminated by being submerged in 70% ethanol for 30 seconds. The FT were then transferred to sterile culture petri dishes containing HBSS and washed twice. The BFTE cells were harvested either by flushing the FT with HBSS, using a 10 ml syringe equipped with a mouse feeding needle, or by opening the FT lengthwise with scissors and scraping the mucosal surfaces. The BFTE cells were subsequently washed in HBSS by centrifugation at 200×g (force of gravity) for 10 minutes, planted in 75-cm^2 flasks containing RPMI 1640 and cultured in a 5% CO2 incubator at 37° C. for 72 to 120 hours. When the cell lines reached confluency, they were trypsinized, split, and planted onto cover slips positioned on the bottoms of individual wells in 24-well tissue culture plates. When cells reached 80% confluency, they were inoculated with either 10^5 oocysts or 4×10^5 sporozoites per well. Plates were then maintained at 37° C. in a candle jar environment (17% O2, 3% CO2, 80% N2). Growth medium was changed in each well every 72 hours. In wells inoculated with oocysts, the medium was first changed at 24 hours to remove any unexcysted oocysts.
Coverslips were removed at 5, 24, 48, 72, 96, and 120 hours from the inoculated wells containing monolayers of BFTE cells. The coverslips were washed in RPMI 1640, fixed in 100% methanol for 10 minutes, stained with Giemsa stain for 1 hour, and washed three times with double-distilled water (ddH2 O). Coverslips were then mounted on glass slides and examined under oil immersion (1000X), using bright-field microscopy. Parasites were enumerated by counting all developmental stages of C. parvum present in a single scan (67 fields) through the center of each coverslip. The data were statistically compared for significance, using analysis of variance (Fischer's protected least-significant-difference test using a "[…]" statistical analysis application developed by Abacus Concepts, Inc., Berkeley, Calif.).
The anticryptosporidial potential of the protease inhibitor AAT was evaluated in a BFTE cell culture system inoculated with C. parvum oocysts in accordance with the methods detailed in Example I. […] At 24 hours post-inoculation, the BFTE cells were rinsed with RPMI medium, fixed in methanol, and stained with Giemsa. Parasites were enumerated in cell monolayers by brightfield microscopy. Results, as set out in Table 1, represent the mean number of parasites counted per treatment group expressed as a percent, plus or minus the standard deviation, of the mean number of parasites counted in the infection control group.

BFTE cells = experiment: Cytotoxicity for BFTE cells at the concentrations evaluated; format: cell-based, bovine; conditions: at the concentrations evaluated (5-1000 μg/ml)
Method: Primary BFTE cell cultures were prepared from bovine fallopian tubes (FT). Fat was trimmed from the serosal surfaces, mucus was gently squeezed from the lumens, and FT were decontaminated by being submerged in 70% ethanol for 30 seconds. The FT were then transferred to sterile culture petri dishes containing HBSS and washed twice. The BFTE cells were harvested either by flushing the FT with HBSS, using a 10 ml syringe equipped with a mouse feeding needle, or by opening the FT lengthwise with scissors and scraping the mucosal surfaces. The BFTE cells were subsequently washed in HBSS by centrifugation at 200×g (force of gravity) for 10 minutes, planted in 75-cm^2 flasks containing RPMI 1640 and cultured in a 5% CO2 incubator at 37° C. for 72 to 120 hours. […]
The anticryptosporidial potential of the protease inhibitor AAT was evaluated in a BFTE cell culture system inoculated with C. parvum oocysts in accordance with the methods detailed in Example I. AAT concentrations of 5, 10, 50 100, and 500 micrograms per milliliter ("μg/ml") in RPMI medium were mixed with C. parvum oocysts and used to inoculate BFTE cell monolayers. […] Results, as set out in Table 1, represent the mean number of parasites counted per treatment group expressed as a percent, plus or minus the standard deviation, of the mean number of parasites counted in the infection control group.

[1] = 5 μg/ml, mean parasites as percent of infection control +/- SD
[2] = 10 μg/ml, mean parasites as percent of infection control +/- SD
[3] = 50 μg/ml, mean parasites as percent of infection control +/- SD
[4] = 100 μg/ml, mean parasites as percent of infection control +/- SD
[5] = 500 μg/ml, mean parasites as percent of infection control +/- SD
[6] = 1000 μg/ml, mean parasites as percent of infection control +/- SD

Molecule | Control Percent Survival (C. parvum; [1]) | Control Percent Survival (C. parvum; [2]) | Control Percent Survival (C. parvum; [3]) | Control Percent Survival (C. parvum; [4]) | Control Percent Survival (C. parvum; [5]) | Control Percent Survival (C. parvum; [6]) | Lowest concentrations with significant reduction (P<0.001) in parasite numbers (C. parvum) | Intact (i.e. unexcysted) oocysts in treated BFTE cell monolayers during microscopic enumeration (C. parvum) | Control Percent Survival (C. parvum; 1 mM, percent of infection control +/- SD) | Control Percent Survival (C. parvum; 2 mM, percent of infection control +/- SD) | Control Percent Survival (C. parvum; 3 mM, percent of infection control +/- SD) | Number of parasites vs infection control (P<0.001) (C. parvum; 3 mM, P<0.001) | Number of parasites vs infection control (P<0.01) (C. parvum; 500 μg/ml) | Number of parasites vs infection control (P<0.01) (C. parvum; 10 μg/ml and 50 μg/ml) | Cytotoxicity for BFTE cells (BFTE cells) | Number of parasites vs infection control (P<0.01) (C. parvum; 50 μg/ml and 100 μg/ml)
aprotinin | 83.9 +/- 6.6% | 54.2 +/- 6.0% | 36.1 +/- 4.7% | 16.8 +/- 5.1% | 10.9 +/- 4.7% | 9.4 +/- 1.8% | 5 to 10 µg/mL | frequently observed |  |  |  |  |  |  |  | 
O=S(=O)(F)Cc1ccccc1 [PMSF, phenylmethylsulfonyl flouride] |  |  |  |  |  |  |  |  | 68.9 +/- 5.2% | 55.9 +/- 4.7% | 40.0 +/- 8.3% | significantly reduced |  |  |  | 
COC(=O)CCC(=O)N[C@@H](C)C(=O)N[C@@H](C)C(=O)N1CCC[C@H]1C(=O)N[C@H](C(=O)CCl)C(C)C [MAAPVCK, methoxysuccinyl-ala-ala-pro-valine chloromethylketone] (MeOSuc-AAPV-CH2Cl) | 89.1 +/- 5.4% | 64.8 +/- 12.0% | 58.7 +/- 11.2% | 51.9 +/- 4.6% | 43.4 +/- 6.6% |  |  |  |  |  |  |  | significantly reduced |  |  | 
CC(=O)N[C@@H](CC(C)C)C(=O)N[C@@H](CC(C)C)C(=O)N[C@H](C=O)CCCNC(=N)N [Leupeptin, leupeptin] | 89.1 +/- 5.4% | 64.8 +/- 12.0% | 58.7 +/- 11.2% | 51.9 +/- 4.6% | 43.4 +/- 6.6% |  |  |  |  |  |  |  |  | significantly reduced |  | 
alpha-1-antitrypsin [AAT] | 49.1 +/- 3.8% | 43.9 +/- 4.2% | 42.7 +/- 1.6% | 30.4 +/- 1.9% | 14.7 +/- 6.3% | 1.8 +/- 0.4% | 5 to 10 µg/mL | frequently observed |  |  |  |  |  |  | no evidence of cytotoxicity | 
CC(C)[C@H](NC(=O)[C@H](CCCNC(=N)N)NC(=O)N[C@@H](Cc1ccccc1)C(=O)O)C(=O)N[C@H](C=O)CCCNC(=N)N [ANTIPAIN, antipain] ({Phe-CO}-Arg-Val-Arg-aldehyde) | 67.7 +/- 7.2% | 53.1 +/- 5.8% | 42.1 +/- 6.1% | 20.9 +/- 2.2% | 15.6 +/- 1.4% | 6.6 +/- 1.4% | 5 to 10 µg/mL | frequently observed |  |  |  |  |  |  |  | 
B1 | 89.1 +/- 5.4% | 64.8 +/- 12.0% | 58.7 +/- 11.2% | 51.9 +/- 4.6% | 43.4 +/- 6.6% |  |  |  |  |  |  |  |  |  |  | significantly reduced
